Source: patent US8680012B2, “4-phenyl-pyrane-3,5-diones,4-phenyl-thiopyrane-3,6-diones and cyclohexanetriones as novel herbicides” (Syngenta Crop Protection LLC, priority 2006, dated 2014)

Legend:
Assay type in all cases: in vivo
[1] = test system: Echinochloa crus-galli (ECHCG); assay: Example B pre-emergence herbicidal activity, glasshouse pot test; settings: 312 h, rate 250 g/ha, evaluated after 13 days, read-out: Pre-emergence activity ECHCG (100=total damage to plant; 0=no damage to plant)
How it was run: (§1)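 Spray application in 50:50 acetone/water with 0.5% Tween 20, pre-emergence at 1 day or post-emergence at 8 days after sowing. Evaluated visually at 13 days on a 0–100 damage scale.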

[2] = test system: Alopecurus myosuroides (ALOMY); assay: as above; settings: 312 h, rate 250 g/ha, evaluated after 13 days, read-out: Pre-emergence activity ALOMY (100=total damage to plant; 0=no damage to plant)
How it was run: as §1

[3] = test system: Amaranthus retroflexus (AMARE); assay: as above; settings: 312 h, rate 250 g/ha, evaluated after 13 days, read-out: Pre-emergence activity AMARE (100=total damage to plant; 0=no damage to plant)
How it was run: as §1

Setaria faberi (SETFA) [4] = assay: as above; settings: 312 h, rate 250 g/ha, evaluated after 13 days, read-out: Pre-emergence activity SETFA (100=total damage to plant; 0=no damage to plant)
How it was run: as §1

Avena fatua (AVEFA) [5] = assay: as above; settings: 312 h, rate 250 g/ha, evaluated after 13 days, read-out: Pre-emergence activity AVEFA (100=total damage to plant; 0=no damage to plant)
How it was run: as §1

[6] = test system: Echinochloa crus-galli (ECHCG); assay: Example B post-emergence herbicidal activity, glasshouse pot test; settings: 312 h, rate 250 g/ha, evaluated after 13 days, read-out: Post-emergence activity ECHCG (100=total damage to plant; 0=no damage to plant)
How it was run: as §1

[7] = test system: Alopecurus myosuroides (ALOMY); assay: as above; settings: 312 h, rate 250 g/ha, evaluated after 13 days, read-out: Post-emergence activity ALOMY (100=total damage to plant; 0=no damage to plant)
How it was run: as §1

[8] = test system: Amaranthus retroflexus (AMARE); assay: as above; settings: 312 h, rate 250 g/ha, evaluated after 13 days, read-out: Post-emergence activity AMARE (100=total damage to plant; 0=no damage to plant)
How it was run: as §1

Setaria faberi (SETFA) [9] = assay: as above; settings: 312 h, rate 250 g/ha, evaluated after 13 days, read-out: Post-emergence activity SETFA (100=total damage to plant; 0=no damage to plant)
How it was run: as §1

Avena fatua (AVEFA) [10] = assay: as above; settings: 312 h, rate 250 g/ha, evaluated after 13 days, read-out: Post-emergence activity AVEFA (100=total damage to plant; 0=no damage to plant)
How it was run: as §1

CC(=O)OC1=C(c2cc(-c3ccc(Cl)cn3)ccc2C)C(=O)C(C)(C)OC1(C)C [Compound D-28]
pest or weed control at 250 g/ha [1]: 20%
pest or weed control at 250 g/ha [2]: 30%
pest or weed control at 250 g/ha [3]: 0%
pest or weed control at 250 g/ha (Setaria faberi (SETFA) [4]): 80%
pest or weed control at 250 g/ha (Avena fatua (AVEFA) [5]): 40%
pest or weed control at 250 g/ha [6]: 90%
pest or weed control at 250 g/ha [7]: 80%
pest or weed control at 250 g/ha [8]: 0%
pest or weed control at 250 g/ha (Setaria faberi (SETFA) [9]): 80%
pest or weed control at 250 g/ha (Avena fatua (AVEFA) [10]): 50%

COc1ccc(-c2ccc(Cl)cc2)cc1C1=C(O)C(C)(C)OC(C)(C)C1=O [Compound A-90]
pest or weed control at 250 g/ha [1]: 0%
pest or weed control at 250 g/ha [2]: 0%
pest or weed control at 250 g/ha [3]: 0%
pest or weed control at 250 g/ha (Setaria faberi (SETFA) [4]): 0%
pest or weed control at 250 g/ha (Avena fatua (AVEFA) [5]): 0%
pest or weed control at 250 g/ha [6]: 90%
pest or weed control at 250 g/ha [7]: 40%
pest or weed control at 250 g/ha [8]: 0%
pest or weed control at 250 g/ha (Setaria faberi (SETFA) [9]): 90%
pest or weed control at 250 g/ha (Avena fatua (AVEFA) [10]): 20%

Cc1ccc(-c2c(Cl)cc(Cl)cc2Cl)cc1C1=C(O)C(C)(C)OC(C)(C)C1=O [Compound A-60]
pest or weed control at 250 g/ha [1]: 20%
pest or weed control at 250 g/ha [2]: 0%
pest or weed control at 250 g/ha [3]: 0%
pest or weed control at 250 g/ha (Setaria faberi (SETFA) [4]): 20%
pest or weed control at 250 g/ha (Avena fatua (AVEFA) [5]): 0%
pest or weed control at 250 g/ha [6]: 80%
pest or weed control at 250 g/ha [7]: 20%
pest or weed control at 250 g/ha [8]: 60%
pest or weed control at 250 g/ha (Setaria faberi (SETFA) [9]): 80%
pest or weed control at 250 g/ha (Avena fatua (AVEFA) [10]): 0%

CCOc1ccc(-c2ccc(Cl)cc2Cl)cc1C1=C(O)C(C)(C)OC(C)(C)C1=O [Compound A-87]
pest or weed control at 250 g/ha [1]: 0%
pest or weed control at 250 g/ha [2]: 0%
pest or weed control at 250 g/ha [3]: 0%
pest or weed control at 250 g/ha (Setaria faberi (SETFA) [4]): 0%
pest or weed control at 250 g/ha (Avena fatua (AVEFA) [5]): 0%
pest or weed control at 250 g/ha [6]: 80%
pest or weed control at 250 g/ha [7]: 10%
pest or weed control at 250 g/ha [8]: 0%
pest or weed control at 250 g/ha (Setaria faberi (SETFA) [9]): 80%
pest or weed control at 250 g/ha (Avena fatua (AVEFA) [10]): 0%

CCc1ccc(-c2ccc(Cl)cn2)cc1C1=C(O)C(C)(C)OC(C)(C)C1=O [Compound A-150]
pest or weed control at 250 g/ha [1]: 100%
pest or weed control at 250 g/ha [2]: 90%
pest or weed control at 250 g/ha [3]: 0%
pest or weed control at 250 g/ha (Setaria faberi (SETFA) [4]): 100%
pest or weed control at 250 g/ha (Avena fatua (AVEFA) [5]): 40%
pest or weed control at 250 g/ha [6]: 100%
pest or weed control at 250 g/ha [7]: 90%
pest or weed control at 250 g/ha [8]: 0%
pest or weed control at 250 g/ha (Setaria faberi (SETFA) [9]): 100%
pest or weed control at 250 g/ha (Avena fatua (AVEFA) [10]): 80%

CCc1ccc(-c2ccc(Cl)cc2Cl)cc1C1=C(O)C(C)(C)[S+]([O-])C(C)(C)C1=O (single isomer, unassigned) [Compound C-10]
pest or weed control at 250 g/ha [1]: 40%
pest or weed control at 250 g/ha [2]: 20%
pest or weed control at 250 g/ha [3]: 0%
pest or weed control at 250 g/ha (Setaria faberi (SETFA) [4]): 0%
pest or weed control at 250 g/ha (Avena fatua (AVEFA) [5]): 20%
pest or weed control at 250 g/ha [6]: 70%
pest or weed control at 250 g/ha [7]: 20%
pest or weed control at 250 g/ha [8]: 0%
pest or weed control at 250 g/ha (Setaria faberi (SETFA) [9]): 20%
pest or weed control at 250 g/ha (Avena fatua (AVEFA) [10]): 50%

CCOc1ccc(-c2ccc(Cl)cc2)cc1C1=C(O)C(C)(C)OC(C)(C)C1=O [Compound A-89]
pest or weed control at 250 g/ha [1]: 0%
pest or weed control at 250 g/ha [2]: 0%
pest or weed control at 250 g/ha [3]: 0%
pest or weed control at 250 g/ha (Setaria faberi (SETFA) [4]): 50%
pest or weed control at 250 g/ha (Avena fatua (AVEFA) [5]): 0%
pest or weed control at 250 g/ha [6]: 90%
pest or weed control at 250 g/ha [7]: 80%
pest or weed control at 250 g/ha [8]: 0%
pest or weed control at 250 g/ha (Setaria faberi (SETFA) [9]): 80%
pest or weed control at 250 g/ha (Avena fatua (AVEFA) [10]): 50%

Cc1cc(C)c(-c2ccc(Cl)cc2F)c(C)c1C1=C(O)C(C)(C)OC(C)(C)C1=O [Compound A-102]
pest or weed control at 250 g/ha [1]: 90%
pest or weed control at 250 g/ha [2]: 30%
pest or weed control at 250 g/ha [3]: 0%
pest or weed control at 250 g/ha (Setaria faberi (SETFA) [4]): 90%
pest or weed control at 250 g/ha (Avena fatua (AVEFA) [5]): 0%
pest or weed control at 250 g/ha [6]: 70%
pest or weed control at 250 g/ha [7]: 20%
pest or weed control at 250 g/ha [8]: 0%
pest or weed control at 250 g/ha (Setaria faberi (SETFA) [9]): 30%
pest or weed control at 250 g/ha (Avena fatua (AVEFA) [10]): 0%
